Columns and labels:
[1] = test system: recombinant guanylate cyclase reporter cell line; assay: Effect on a recombinant guanylate cyclase reporter cell line; assay type: cell-based
Description: The cellular activity of the compounds according to the invention is determined using a recombinant guanylate cyclase reporter cell line, as described in F. Wunder et al., Anal. Biochem. 339, 104-112 (2005).

rabbit aorta rings = assay: Vasorelaxant action in vitro (phenylephrine-contracted rabbit aorta rings); conditions: Oryctolagus cuniculus, phenylephrine contraction, 0.1% DMSO, read-out: IC50 (concentration needed to reduce the phenylephrine contraction by 50%)
Description: Rabbits are stunned by a blow to the neck and exsanguinated. The aorta is removed, freed from adhering tissue and divided into rings of a width of 1.5 mm. The rings are placed individually under an initial tension in 5 ml organ baths with Krebs-Henseleit solution which is at 37° C., is gassed with carbogen and has the following composition (in each case mM): sodium chloride 119; potassium chloride: 4.8; calcium chloride dihydrate: 1; magnesium sulfate heptahydrate: 1.4; potassium dihydrogenphosphate: 1.2; sodium bicarbonate: 25; glucose: 10. The contractile force is determined with Statham UC2 cells, amplified and digitalized using A/D transducers (DAS 1802 HC, Keithley Instruments Munich), and recorded in parallel on linear recorders. To obtain a contraction, phenylephrine is added to the bath cumulatively in increasing concentration. After several control cycles, the substance to be investigated is added in each further run in increasing dosage in each case, and the height of the contraction achieved is compared with the height of the contraction reached in the last preceding run. This is used to calculate the concentration needed to reduce the magnitude of the control value by 50% (IC50 value). The standard administration volume is 5 μl; the DMSO content in the bath solution corresponds to 0.1%.

[2] = Pharmacokinetic parameters following intravenous administration to rats; assay type: in vivo, male Wistar rats; conditions: rat, 0.3 mg/kg intravenous; for MRT / half-life: male, Wistar, plasma; for MRT: read-out: Mean residence time; for half-life: read-out: Terminal half-life (converted)
Description: The pharmacokinetic parameters of the compounds of the formula (I) according to the invention are determined in male Wistar rats. The administration volume is 5 ml/kg. Intravenous administration is by means of a species-specific plasma/DMSO formulation (99/1). The taking of blood from rats is simplified by inserting a silicone catheter into the right Vena jugularis externa prior to substance administration. The surgical intervention takes place one day prior to the experiment with isofluran anesthesia and administration of an analgetic (atropine/rimadyl (3/1) 0.1 ml s.c.). Substance administration is as an i.v. bolus. Removal of blood from the rats is after 0.033, 0.083, 0.17, 0.5, 1, 2, 3, 4, 6, 8, 24 and 27 hours. The blood is removed into heparinized tubes. The blood plasma is then obtained by centrifugation; if required, it can be stored at −20° C. until further processing.
An internal standard (ZK 228859) is added to the samples of the compounds of the formula (I) according to the invention, calibration samples and QCs, and the protein is precipitated using excess acetonitrile. After addition of an ammonium acetate buffer (0.01 M, pH 6.8) and subsequent vortexing, the mixture is centrifuged at 1000 g and the supernatant is examined by LC-MS/MS (API 4000, AB Sciex). Chromatographic separation is carried out on an Agilent 1100-HPLC. The injection volume is 20 μl. The separation column used is a Phenomenex Gemini 5μ C18 110A 50×3 mm, adjusted to a temperature of 40° C. A binary mobile phase gradient at 500 μl/min is used (A: 0.01M ammonium acetate buffer pH 6.8, B: 0.1% formic acid in acetonitrile): 0 min (90% A), 1 min (90% A), 3 min (10% A), 4 min (10% A), 4.50 min (90% A), 6 min (90% A). The temperature of the Turbo V ion source is 400° C. The following MS instrument parameters are used: curtain gas 15 units, ion spray voltage 4.8 kV, gas 1 50 units, gas 2 40 units, CAD gas 8 units. The substances are quantified by peak heights or areas using extracted ion chromatograms of specific MRM experiments.
The plasma concentration/time plots determined are used to calculate the pharmacokinetic parameters such as AUC, Cmax, t1/2 (terminal half life), MRT (mean residence time) and CL (clearance), using the validated pharmacokinetic calculation program KinEx (Vers.3).
Since the substance quantification is performed in plasma, it is necessary to determine the blood/plasma distribution of the substance in order to be able to adjust the pharmacokinetic parameters correspondingly. For this purpose, a defined amount of substance is incubated in heparinized whole blood of the species in question in a rocking roller mixer for 20 min. After centrifugation at 1000 g, the plasma concentration is measured (see above) and determined by calculating the quotient of the cblood/cplasma values.
Following intravenous administration of 0.3 mg/kg of representative compounds according to the invention to rats, the data listed in Table 3 were obtained: […]

SMILES	MEC (minimum effective concentration) [1]	IC50 (rabbit aorta rings)	MRT [2]	half-life [2]	CLblood [2]
CC1(C)C(=O)Nc2nc(-c3nc(Cc4ccccc4F)n4ncccc34)nnc21 [Example 4, 3-[7-(2-Fluorobenzyl)imidazo[1,5-b]pyridazin-5-yl]-7,7-dimethyl-5,7-dihydro-6H-pyrrolo[2,3-e][1,2,4]triazin-6-one]	0.03 µM	42 nM	–	–	–
CC1(C)C(=O)Nc2nc(-c3nc(CCC(F)(F)C(F)(F)F)n4cc(F)ccc34)nnc21 [Example 12, 3-[6-Fluoro-3-(3,3,4,4,4-pentafluorobutyl)imidazo[1,5-a]pyridin-1-yl]-7,7-dimethyl-5,7-dihydro-6H-pyrrolo[2,3-e][1,2,4]triazin-6-one]	1.0 µM	276 nM	4.6 h	5.2 h	2.67 mL/min/kg
CC1(C)C(=O)Nc2nc(-c3nc(Cc4ccccc4F)n4ncccc34)ncc21 [Example 3, 2-[7-(2-Fluorobenzyl)imidazo[1,5-b]pyridazin-5-yl]-5,5-dimethyl-5,7-dihydro-6H-pyrrolo[2,3-d]pyrimidin-6-one]	0.03 µM	72 nM	–	–	–
CC1(C)C(=O)Nc2nc(-c3nc(Cc4ccccc4F)n4ncccc34)nc(I)c21 [Example 1, 2-[7-(2-Fluorobenzyl)imidazo[1,5-b]pyridazin-5-yl]-4-iodo-5,5-dimethyl-5,7-dihydro-6H-pyrrolo[2,3-d]pyrimidin-6-one]	0.1 µM	–	–	–	–
CC1(C)C(=O)Nc2nc(-c3nc(Cc4c(F)ccc(F)c4F)n4cc(Cl)ccc34)ncc21 [Example 7, 2-[6-Chloro-3-(2,3,6-trifluorobenzyl)imidazo[1,5-a]pyridin-1-yl]-5,5-dimethyl-5,7-dihydro-6H-pyrrolo[2,3-d]pyrimidin-6-one]	0.01 µM	–	–	–	–
CC1(C)C(=O)Nc2nc(-c3nc(Cc4c(F)ccc(F)c4F)n4cc(Cl)ccc34)nnc21 [Example 11, 3-[6-Chloro-3-(2,3,6-trifluorobenzyl)imidazo[1,5-a]pyridin-1-yl]-7,7-dimethyl-5,7-dihydro-6H-pyrrolo[2,3-e][1,2,4]triazin-6-one]	0.03 µM	30 nM	9.4 h	7.2 h	0.5 mL/min/kg

— patent publication US20140171434A1, “SUBSTITUTED IMIDAZOPYRIDINES AND IMIDAZOPYRIDAZINES AND THE USE THEREOF” (BAYER PHARMA AKTIENGESSELLSCHAFT, priority 2011, published 2014)
